Measurements from the supplement of paper PMC10307832.

Legend:
Experiment in all cases: relative viability (nuclei count vs DMSO), 5 days (fraction); higher = more cells survive
[1] = compound: Cc1ccc2nc(NCCN)c3ncc(C)n3c2c1 + CS(=O)(=O)N1CCN(Cc2cc3nc(-c4cccc5[nH]ncc45)nc(N4CCOCC4)c3s2)CC1 [Pictilisib] (partner 1 µM)
Outline: (§1)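 Cells from lung cancer lines were seeded into 1536-well plates and, one day later, dosed by pin tool. Treatments were either a single drug or a fixed dose of an anchor drug with five library-drug doses (not always all listed) in √10 steps. After 5 days, nuclei were stained in a one-step fixation (final 0.05% Triton X-100, 1% formaldehyde, 1 ug/ml Hoechst) and counted on 4× images, and relative viability is the treated-to-vehicle nuclei ratio, as the median of duplicate plates.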

[2] = compound: O=C(/C=C/c1ccccc1)NC(NC(=S)Nc1cccc2cccnc12)C(Cl)(Cl)Cl [Salubrinal] + O=C(c1cc(Cc2n[nH]c(=O)c3ccccc23)ccc1F)N1CCN(C(=O)C2CC2)CC1 [Olaparib] (partner 8 µM)
Outline: as §1

[3] = compound: O=C(/C=C/c1ccccc1)NC(NC(=S)Nc1cccc2cccnc12)C(Cl)(Cl)Cl [Salubrinal] + Cc1cc(Nc2cc(N3CCN(C)CC3)nc(Sc3ccc(NC(=O)C4CC4)cc3)n2)n[nH]1 [Tozasertib] (partner 0.1 µM)
Outline: as §1

[4] = compound: Cc1ccc2nc(NCCN)c3ncc(C)n3c2c1 + COc1cc2c(Oc3ccc(NC(=O)C4(C(=O)Nc5ccc(F)cc5)CC4)cc3F)ccnc2cc1OCCCN1CCOCC1 [Foretinib] (partner 0.25 µM)
Outline: as §1

Row | Cell Line | relative viability ([1]; first compound 0.04 µM) | relative viability ([1]; first compound 0.1265 µM) | relative viability ([1]; first compound 0.4 µM) | relative viability ([1]; first compound 1.265 µM) | relative viability ([1]; first compound 4 µM) | relative viability ([2]; first compound 0.08 µM) | relative viability ([2]; first compound 0.253 µM) | relative viability ([2]; first compound 0.8 µM) | relative viability ([2]; first compound 2.53 µM) | relative viability ([2]; first compound 8 µM) | relative viability ([3]; first compound 0.08 µM) | relative viability ([3]; first compound 0.253 µM) | relative viability ([3]; first compound 0.8 µM) | relative viability ([3]; first compound 2.53 µM) | relative viability ([3]; first compound 8 µM) | relative viability ([4]; first compound 0.04 µM) | relative viability ([4]; first compound 0.1265 µM) | relative viability ([4]; first compound 0.4 µM) | relative viability ([4]; first compound 1.265 µM) | relative viability ([4]; first compound 4 µM)
1 | HCC-44 | 0.692 | 0.777 | 0.595 | 0.535 | 0.565 | 1 | 0.968 | 1.03 | 0.957 | 1.03 | 1.24 | 0.916 | 1.08 | 0.74 | 0.708 |  |  |  |  | 
2 | HCC-78 | 0.229 | 0.23 | 0.222 | 0.215 | 0.217 | 1 | 0.964 | 1 | 0.788 | 0.9 | 0.372 | 0.343 | 0.345 | 0.351 | 0.314 | 0.579 | 0.584 | 0.493 | 0.626 | 0.558
3 | HCC-366 | 0.131 | 0.123 | 0.163 | 0.114 | 0.116 | 0.459 |  | 0.401 | 0.341 | 0.357 | 0.106 | 0.0941 | 0.118 | 0.0829 | 0.0635 | 0.914 | 0.945 | 0.934 | 0.945 | 0.917
4 | HCC-827 | 0.947 | 0.929 | 0.891 | 0.86 | 1.07 | 0.684 | 0.646 | 0.647 | 0.629 | 0.664 | 0.429 | 0.423 | 0.406 | 0.417 | 0.432 | 1.05 | 1.1 | 1.06 | 1.02 | 0.935
5 | HOP-62 | 0.829 | 0.567 | 0.492 | 0.589 | 0.71 | 0.318 | 1.34 | 0.943 | 0.456 | 0.386 | 0.334 | 0.378 | 0.409 | 0.347 | 0.334 | 1.05 | 1.07 | 1.1 | 1.13 | 1.02
6 | IA-LM | 0.343 | 0.335 | 0.188 | 0.238 | 0.347 | 0.842 | 0.83 | 0.935 | 0.704 | 0.72 |  |  |  |  |  | 1.19 | 1.25 | 1.07 | 1.16 | 0.928
7 | LC-2-ad | 0.504 | 0.683 | 0.439 | 0.429 | 0.423 | 0.677 | 0.708 | 0.729 | 0.728 | 0.709 | 0.45 | 0.449 | 0.478 | 0.408 | 0.354 | 0.96 | 0.879 | 0.876 | 0.984 | 0.868
8 | LCLC-97TM1 | 0.208 | 0.248 | 0.187 | 0.216 | 0.199 | 0.289 | 0.345 | 0.376 | 0.412 | 0.383 | 0.238 | 0.157 | 0.266 | 0.188 | 0.165 | 0.91 | 0.998 | 0.934 | 0.931 | 0.892
9 | LCLC-103H | 0.534 | 0.644 | 0.561 | 0.6 | 0.576 | 0.866 | 0.572 | 0.853 | 0.769 | 0.76 | 0.487 | 0.445 | 0.404 | 0.498 | 0.42 | 0.753 | 0.919 | 0.802 | 0.761 | 0.633
10 | LK-2 | 0.585 | 0.547 | 0.604 | 0.406 | 0.463 | 0.873 | 0.659 | 0.877 | 0.773 | 0.694 | 0.158 | 0.197 | 0.178 | 0.198 | 0.176 | 1.28 | 1.2 | 0.936 | 0.967 | 1.06
11 | LOU-NH91 | 0.528 | 0.534 | 0.514 | 0.56 | 0.475 | 0.967 | 0.908 | 0.897 | 0.9 | 0.961 | 0.794 | 0.639 | 0.626 | 0.706 | 0.59 | 0.914 | 0.929 | 0.889 | 0.93 | 0.844
12 | LU99A | 0.346 | 0.328 | 0.327 | 0.349 | 0.321 | 0.286 | 0.29 | 0.265 | 0.24 | 0.222 | 0.253 | 0.267 | 0.265 | 0.275 | 0.27 | 0.884 | 0.796 | 0.805 | 0.921 | 0.83
13 | NCI-H522 |  |  |  |  |  | 0.565 | 0.648 | 0.701 | 0.686 | 0.637 | 0.566 | 0.588 | 0.524 | 0.589 | 0.569 |  |  |  |  | 
14 | NCI-H1299 | 0.864 | 0.761 | 0.735 | 0.55 | 0.263 | 0.98 | 0.947 | 0.993 | 0.951 | 0.936 |  |  |  |  |  | 1.12 | 1.14 | 1.09 | 1.05 | 1
15 | NCI-H1563 | 0.706 | 0.582 | 0.701 | 0.607 | 0.633 |  |  |  |  |  |  |  |  |  |  | 0.954 | 0.882 | 0.872 | 1.06 | 0.991
16 | NCI-H1648 |  |  |  |  |  | 0.751 | 1.03 | 0.476 | 1.02 | 0.594 | 0.466 | 0.586 | 0.334 | 0.501 | 0.247 |  |  |  |  | 
17 | NCI-H1703 | 0.299 | 0.248 | 0.257 | 0.321 | 0.233 | 0.414 | 0.721 | 0.416 | 0.486 | 0.385 |  |  |  |  |  | 0.307 | 0.316 | 0.322 | 0.368 | 0.327
18 | NCI-H1792 | 0.348 | 0.244 | 0.309 | 0.259 | 0.242 | 0.531 |  | 0.583 | 0.287 | 0.408 |  |  |  |  |  |  |  |  |  | 
19 | NCI-H2342 |  |  |  |  |  | 0.456 | 0.45 | 0.455 | 0.432 | 0.497 | 0.457 | 0.503 | 0.527 | 0.583 | 0.533 | 1.24 | 1.06 | 0.987 | 1.05 | 1.14
20 | SW 900 |  |  |  |  |  | 1.04 | 1.07 | 0.892 | 0.793 | 0.801 | 0.539 |  | 0.681 | 0.568 | 0.337 | 1.11 | 1.08 |  | 0.684 | 0.772
